Data published in ChEMBL document CHEMBL3882724 (2013).

How the values were obtained:
[1] = target: T1, Steroid 17-alpha-hydroxylase/17,20 lyase (Homo sapiens, UniProt P05093); experiment: Inhibition of CYP17 in human testicular microsomes using 17alpha-hydroxypregnenolone as substrate assessed as decrease in DHEA levels after 90 mins by ELISA; set-up: species or system Testis
T1 sequence (P05093 whole entry): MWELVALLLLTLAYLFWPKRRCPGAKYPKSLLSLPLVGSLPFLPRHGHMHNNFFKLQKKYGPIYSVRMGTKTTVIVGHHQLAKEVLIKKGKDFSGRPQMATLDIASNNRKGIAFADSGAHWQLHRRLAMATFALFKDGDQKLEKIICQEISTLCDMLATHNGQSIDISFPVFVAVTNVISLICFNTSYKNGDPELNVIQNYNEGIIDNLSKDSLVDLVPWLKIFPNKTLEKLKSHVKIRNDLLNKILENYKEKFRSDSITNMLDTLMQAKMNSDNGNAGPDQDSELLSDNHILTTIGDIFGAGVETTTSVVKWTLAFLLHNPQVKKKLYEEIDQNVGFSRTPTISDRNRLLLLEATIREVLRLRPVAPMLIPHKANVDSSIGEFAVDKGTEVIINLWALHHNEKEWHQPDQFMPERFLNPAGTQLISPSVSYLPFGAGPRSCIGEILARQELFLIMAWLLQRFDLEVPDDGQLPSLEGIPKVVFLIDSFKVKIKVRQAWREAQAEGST

[2] = Half life in human liver microsomes at 1 uM by LC-MS/MS analysis
[3] = target: T1, Steroid 17-alpha-hydroxylase/17,20 lyase; experiment: Inhibition of CYP17 in human testicular microsomes using 17alpha-hydroxypregnenolone as substrate assessed as decrease in DHEA levels at 10 nM after 90 mins by ELISA relative to control; set-up: species or system Testis; conditions: 1.5 h
[4] = target: T2, CYP21 (steroid 21-hydroxylase) (Homo sapiens, UniProt P08686); experiment: Inhibition of human CYP21 transfected in HEK293 cells assessed as decrease in conversion of progesterone to 11-deoxycorticosterone at 100 nM preincubated for 5 hrs followed by progesterone addition measured after 20 hrs by ELISA relative to control; type: cell-based; conditions: HEK293 cells transfected with human CYP21, probe progesterone
T2 sequence (P08686 whole entry): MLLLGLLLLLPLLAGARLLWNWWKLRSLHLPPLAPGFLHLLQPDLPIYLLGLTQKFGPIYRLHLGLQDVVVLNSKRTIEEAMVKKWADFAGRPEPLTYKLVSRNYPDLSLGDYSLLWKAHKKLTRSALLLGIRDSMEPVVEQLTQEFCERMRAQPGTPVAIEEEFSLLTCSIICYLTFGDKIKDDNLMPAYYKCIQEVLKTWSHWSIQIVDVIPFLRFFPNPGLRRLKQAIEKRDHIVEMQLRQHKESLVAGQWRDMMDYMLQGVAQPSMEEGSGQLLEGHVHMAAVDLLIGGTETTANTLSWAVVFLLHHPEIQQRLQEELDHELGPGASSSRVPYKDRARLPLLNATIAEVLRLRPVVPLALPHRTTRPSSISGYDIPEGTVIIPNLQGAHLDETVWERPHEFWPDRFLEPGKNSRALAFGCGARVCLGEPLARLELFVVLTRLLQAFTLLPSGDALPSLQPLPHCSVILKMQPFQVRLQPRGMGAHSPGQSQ

[5] = Half life in rat liver microsomes at 1 uM by LC-MS/MS analysis
[6] = target: T2, CYP21 (steroid 21-hydroxylase); experiment: Inhibition of human CYP21 transfected in HEK293 cells assessed as decrease in conversion of progesterone to 11-deoxycorticosterone preincubated for 5 hrs followed by progesterone addition measured after 20 hrs by ELISA; type: cell-based; set-up: concentration or dose not given beside the values; conditions: HEK293 cells transfected with human CYP21, probe progesterone
[7] = target: T1, Steroid 17-alpha-hydroxylase/17,20 lyase; experiment: Inhibition of CYP17 in human testicular microsomes using 17alpha-hydroxypregnenolone as substrate assessed as decrease in DHEA levels at 1 nM after 90 mins by ELISA relative to control; set-up: species or system Testis
CYP11B = target: T3, CYP11B (Rattus norvegicus, UniProt P15393+P30099); experiment: Inhibition of Sprague-Dawley rat adrenal mitochondrial CYP11B assessed as decrease in conversion of 11-deoxycortisol to cortisol at 100 nM incubated for 60 mins by ELISA relative to control; type: protein assay; conditions: adrenal mitochondria, probe 11-deoxycortisol
T3 sequence (P30099 whole entry): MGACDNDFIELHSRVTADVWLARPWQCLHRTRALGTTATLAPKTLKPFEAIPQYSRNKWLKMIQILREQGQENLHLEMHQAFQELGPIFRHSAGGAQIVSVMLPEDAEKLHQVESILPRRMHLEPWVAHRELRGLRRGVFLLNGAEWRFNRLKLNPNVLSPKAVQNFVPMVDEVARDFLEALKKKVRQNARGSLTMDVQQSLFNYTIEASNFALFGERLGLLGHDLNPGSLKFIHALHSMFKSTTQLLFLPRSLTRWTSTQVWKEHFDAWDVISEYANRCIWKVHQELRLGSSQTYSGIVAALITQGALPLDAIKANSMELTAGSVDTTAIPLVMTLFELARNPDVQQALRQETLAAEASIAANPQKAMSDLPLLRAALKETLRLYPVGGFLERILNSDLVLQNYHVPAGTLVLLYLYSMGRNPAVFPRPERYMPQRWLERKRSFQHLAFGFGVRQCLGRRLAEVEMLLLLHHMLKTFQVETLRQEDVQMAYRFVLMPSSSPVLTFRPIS
T3 sequence (P15393 whole entry): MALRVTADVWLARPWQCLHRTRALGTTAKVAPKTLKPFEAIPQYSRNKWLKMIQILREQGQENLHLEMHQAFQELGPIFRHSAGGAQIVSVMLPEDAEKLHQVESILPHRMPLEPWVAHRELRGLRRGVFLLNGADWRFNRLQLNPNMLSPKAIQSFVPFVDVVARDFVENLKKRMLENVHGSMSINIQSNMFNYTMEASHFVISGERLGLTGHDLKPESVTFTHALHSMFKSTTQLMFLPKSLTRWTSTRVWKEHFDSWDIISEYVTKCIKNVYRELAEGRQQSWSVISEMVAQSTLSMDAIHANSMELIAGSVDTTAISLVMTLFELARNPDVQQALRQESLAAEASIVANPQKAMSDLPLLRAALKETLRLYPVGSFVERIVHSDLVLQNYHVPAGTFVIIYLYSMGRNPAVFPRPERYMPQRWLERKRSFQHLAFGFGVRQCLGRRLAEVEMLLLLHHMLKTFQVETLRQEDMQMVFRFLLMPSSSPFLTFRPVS

[8] = target: T1, Steroid 17-alpha-hydroxylase/17,20 lyase; experiment: Inhibition of CYP17 in human H295R cells assessed as decrease in testosterone levels after 24 hrs by ELISA; type: cell-based

Row | SMILES | IC50 [1] [nM] | half-life at 1 µM [2] [min] | inhibition at 0.01 µM [3] [%] | inhibition at 20 h, 0.1 µM [4] [%] | half-life at 1 µM [5] [min] | inhibition at 20 h [6] [%] | IC50 [7] [nM] | inhibition at 1 h, 0.1 µM (CYP11B) [%] | IC50 [8] [nM]
1 | COc1cncc(C2=CC=C3[C@@H]4CCC5=CC(=O)N(C)CC[C@]5(C)[C@H]4CC[C@]23C)c1 | ≤ 11 | 1 to 50 | ≥ 80 | ≥ 30 | – | – | – | – | –
2 | CC1C[C@H]2C3=CC=C(c4cncc(N)c4)[C@@]3(C)CC[C@@H]2[C@@]2(C)CCC(=O)C=C12 (some centres not stated) | ≤ 11 | – | – | < 30 | – | – | – | – | –
3 | C[C@]12CCNC(=O)C=C1CC[C@@H]1[C@@H]2CC[C@]2(C)C(c3cncnc3)=CC[C@@H]12 | – | 1 to 10 | 50 to 80 | ≥ 30 | 1 to 10 | – | – | – | –
4 | COc1cncc(C2=CC=C3[C@@H]4CCC5=CC(=O)CC[C@]5(C)[C@H]4CC[C@]23C)c1 | – | 1 to 50 | 50 to 80 | ≥ 30 | – | – | – | – | –
5 | CN1CC[C@@]2(C)C(=CC1=O)CC[C@H]1C3=CC=C(c4cnccn4)[C@@]3(C)CC[C@@H]12 | ≤ 11 | – | ≥ 80 | ≥ 30 | – | 10 to 50 | – | – | –
6 | C[C@]12CC[C@H]3[C@@H](CCC4=CC(=O)CC[C@@]43C)C1=CC=C2c1cccnc1 | ≤ 11 | 1 to 50 | ≥ 80 | ≥ 30 | 1 to 10 | – | – | – | –
7 | COc1cncc(C2=CC=C3[C@@H]4CCC5=CC(=O)NCC[C@]5(C)[C@H]4CC[C@]23C)c1 | ≤ 11 | – | 50 to 80 | ≥ 30 | – | – | – | – | –
8 | C[C@]12CC[C@H]3[C@@H](CC[C@H]4CC(=O)NCC[C@@]43C)C1=CC=C2c1cccnc1 | ≤ 11 | 1 to 50 | ≥ 80 | < 30 | 1 to 10 | – | – | – | –
9 | C[C@]12CCNC(=O)C=C1CC[C@@H]1[C@@H]2CC[C@]2(C)C(n3ccnn3)=CC[C@@H]12 | – | ≥ 50 | ≥ 80 | < 30 | 1 to 10 | – | – | – | –
10 | C[C@]12CC[C@H]3[C@@H](CCC4=CC(=O)NCC[C@@]43C)C1=CC=C2n1ccnc1 | ≤ 11 | ≥ 50 | ≥ 80 | < 30 | 10 to 60 | – | – | – | –
11 | COC(=O)N1CCC[C@@]2(C)[C@@H](CC[C@@H]3[C@@H]2CC[C@]2(C)C(n4ccnc4)=CC[C@@H]32)C1 | – | – | – | – | – | 10 to 50 | > 100 | ≥ 50 | –
12 | C[C@]12CCNC(=O)C=C1CC[C@@H]1[C@@H]2CC[C@]2(C)C(n3ccnc3)=CC[C@@H]12 | ≤ 11 | ≥ 50 | ≥ 80 | < 30 | 10 to 60 | – | – | – | ≤ 15
13 | Cc1cncc(C2=CC=C3[C@@H]4CCC5=CC(=O)N(C)CC[C@]5(C)[C@H]4CC[C@]23C)c1 | – | – | 50 to 80 | < 30 | – | – | – | – | –
14 | C[C@]12CC[C@H]3[C@@H](CCC4=C/C(=N/O)CC[C@@]43C)C1=CC=C2c1cccnc1 | ≤ 11 | 1 to 50 | – | < 30 | – | ≥ 50 | – | – | –
15 | CCc1cncc(C2=CC[C@H]3[C@@H]4CCC5=CC(=O)NCC[C@]5(C)[C@H]4CC[C@]23C)c1 | ≤ 11 | 10 to 60 | ≥ 80 | < 30 | 10 to 60 | – | – | – | –
16 | C[C@]12CC[C@H]3[C@@H](CCN4C(=O)CCCC[C@]34C)[C@@H]1CC=C2c1cccnc1 | ≤ 11 | – | 50 to 80 | < 30 | – | – | – | – | –
17 | CN1CC[C@@]2(C)C(=CC1=O)CC[C@H]1C3=CC=C(n4ccnc4)[C@@]3(C)CC[C@@H]12 | – | ≥ 50 | ≥ 80 | ≥ 30 | 10 to 60 | – | – | – | ≤ 15
18 | C[C@]12CC[C@H]3[C@@H](CC[C@H]4CC(=O)NCC[C@@]43C)C1=CC=C2n1ccnc1 | ≤ 11 | 1 to 50 | ≥ 80 | ≥ 30 | – | – | – | – | –
19 | C[C@]12CCNC(=O)C=C1CC[C@@H]1[C@@H]2CC[C@]2(C)C(c3cccnc3)=CC[C@@H]12 | ≤ 11 | 1 to 10 | ≥ 80 | < 30 | 1 to 10 | – | – | – | –
20 | Cc1cncc(C2=CC[C@H]3[C@@H]4CCC5=CC(=O)NCC[C@]5(C)[C@H]4CC[C@]23C)c1 | ≤ 11 | 10 to 60 | 50 to 80 | ≥ 30 | 10 to 60 | – | – | – | –
21 | C[C@]12CCCC(=O)CC1=CC[C@@H]1[C@@H]2CC[C@]2(C)C(c3cnccn3)=CC[C@@H]12 | – | 1 to 50 | ≥ 80 | ≥ 30 | – | – | – | – | –
22 | C[C@]12CCCC(=O)CC1=CC[C@@H]1[C@@H]2CC[C@]2(C)C(n3ccnc3)=CC[C@@H]12 | ≤ 11 | 1 to 50 | ≥ 80 | ≥ 30 | – | – | – | – | –
23 | CCCOc1cncc(C2=CC[C@H]3[C@@H]4CCC5=CC(=O)NCC[C@]5(C)[C@H]4CC[C@]23C)c1 | ≤ 11 | – | 50 to 80 | < 30 | – | – | – | – | –
24 | CN1CC[C@@]2(C)C(=CC1=O)CCC1[C@@H]2CC[C@]2(C)C(c3cccnc3)=CC[C@@H]12 (single isomer, unassigned) | ≤ 11 | 10 to 60 | 50 to 80 | ≥ 30 | 10 to 60 | – | – | – | –
25 | CCc1cncc(C2=CC[C@H]3[C@@H]4CCC5=CC(=O)N(C)CC[C@]5(C)[C@H]4CC[C@]23C)c1 | – | – | 50 to 80 | ≥ 30 | – | – | – | – | –
26 | C[C@]12CCNC(=O)C=C1CC[C@@H]1[C@@H]2CC[C@]2(C)C(c3cnccn3)=CC[C@@H]12 | – | 1 to 10 | ≥ 80 | ≥ 30 | 1 to 10 | – | – | – | –
